Assay results reported in US12594267B2, “Capsid inhibitors for the treatment of HIV” (Gilead Sciences, Inc., priority 2018, dated 2026).
Read-outs that look alike come from different tables or passages of the source.

How the values were obtained:
INSTI-resistant viruses = test: Cytopathic antiviral assay in MT-2 cells, INSTI-resistant viruses; format: cell-based, HIV-1; conditions: Mutant/WT (HXB2D) EC50 ratio, mean ± s.d. of three experiments
Experimental: (§1) The antiviral activity of the compound of Formula (a) was tested against a panel of known HIV-1 mutants resistant to HIV PIs (ATV and DRV), NRTIs (TFV and FTC), NNRTIs (RPV and EFV) or INSTIs (RAL, EVG and DTG) using a cytopathic antiviral assay in MT-2 cells. The compound of Formula (Ia) was fully active against all tested mutants resistant to PIs (Table 11), NRTIs (Table 12), NNRTIs (Table 13) or INSTIs (Table 14).

NNRTI-resistant viruses = test: Cytopathic antiviral assay in MT-2 cells, NNRTI-resistant viruses; format: cell-based, HIV-1; conditions: Mutant/WT (HXB2D) EC50 ratio, mean ± s.d. of three experiments
Experimental: as §1

PI-resistant viruses = test: Cytopathic antiviral assay in MT-2 cells, PI-resistant viruses; format: cell-based, HIV-1; conditions: Mutant/WT (HXB2D) EC50 ratio, mean ± s.d. of three experiments
Experimental: as §1

WT HXB2D = test: Cytopathic antiviral assay in MT-2 cells, wild type HXB2D; format: cell-based, HIV-1; conditions: Human immunodeficiency virus 1, MT2, read-out: WT HXB2D EC50, MT-2 cells, mean ± s.d. of three experiments in triplicate
Experimental: as §1

HIV-2 isolates = test: Antiviral activity against HIV-2 isolates in PHA-stimulated human PBMCs; format: cell-based; conditions: Human immunodeficiency virus 2, PBMC, 168 h, 7-day infection, RT activity readout, mean of triplicate
Experimental: (§2) The antiretroviral activity of the compound of Formula (Ia) was tested against a panel of 22 HIV-1 clinical isolates of HIV-1 and two HIV-2 isolates in freshly isolated, PHA-stimulated human peripheral blood mononuclear cells (PBMCs). The HIV-1 isolates included representative strains from subtypes A, B, C, D, E, F, G, N, O, AE, and AG. Following a 7-day infection, virus production was determined by measuring reverse transcriptase activity in cell-free culture supernatants.

HIV-1 clinical isolates = test: Antiviral activity against HIV-1 clinical isolates in PHA-stimulated human PBMCs; format: cell-based
Experimental: as §2

[1] = INSTI-resistance panel (Table 14)

**Q.** Which results are given for `O=C1Nc2ccc(Cl)cc2[C@@](C#CC2CC2)(C(F)(F)F)O1` [EFV, efavirenz]?
**A.** EC50 Fold-Change (INSTI-resistant viruses; E92Q/N155H): 1.2 ± 0.6; EC50 Fold-Change (INSTI-resistant viruses; E138K/Q148K): 0.7 ± 0.3; EC50 Fold-Change (INSTI-resistant viruses; G140S/Q148R): 1.0 ± 0.3; EC50 Fold-Change (INSTI-resistant viruses; N155H/Q148R): 1.1 ± 0.5; EC50 Fold-Change (INSTI-resistant viruses; R263K/M50I): 1.3 ± 0.9; EC50 Fold-Change (INSTI-resistant viruses; Y143R): 0.9 ± 0.6; EC50 Fold-Change (NNRTI-resistant viruses; K103N): 14.2 ± 2.7; EC50 Fold-Change (NNRTI-resistant viruses; K103N/Y181C): >22.4; EC50 Fold-Change (NNRTI-resistant viruses; L100I/K103N): >22.4; EC50 Fold-Change (NNRTI-resistant viruses; Y181C): 3.3 ± 2.5; EC50 Fold-Change (NNRTI-resistant viruses; Y188L): >22.4; EC50 Fold-Change (PI-resistant viruses; G48V/V82A/L90M): 0.9 ± 0.4; EC50 Fold-Change (PI-resistant viruses; G48V/V82S): 0.7 ± 0.1; EC50 Fold-Change (PI-resistant viruses; I50V): 3.0 ± 0.9; EC50 Fold-Change (PI-resistant viruses; I84V/L90M): 0.4 ± 0.1; EC50 (WT HXB2D; [1]): 1.37 ± 0.51 nM; EC50 (WT HXB2D; NNRTI-resistance panel (Table 13)): 2.23 ± 0.18 nM; EC50 (WT HXB2D; PI-resistance panel (Table 11)): 1.64 ± 0.55 nM

**Q.** `CC(C)CN(C[C@@H](O)[C@H](Cc1ccccc1)NC(=O)O[C@H]1CO[C@H]2OCC[C@H]21)S(=O)(=O)c1ccc(N)cc1` [DRV, darunavir] was tested. Which “EC50 Fold-Change” value (PI-resistant viruses; G48V/V82A/L90M) did it give?
**A.** 0.5 ± 0.2

**Q.** What about the “EC50 Fold-Change” value (PI-resistant viruses; G48V/V82S) of the same compound?
**A.** 0.3 ± 0.1

**Q.** What about the “EC50 Fold-Change” value (PI-resistant viruses; I50V) of the same compound?
**A.** 31.6 ± 22.8

**Q.** What about the “EC50 Fold-Change” value (PI-resistant viruses; I84V/L90M) of the same compound?
**A.** 1.9 ± 0.9

**Q.** And the EC50 (WT HXB2D; PI-resistance panel (Table 11))?
**A.** 2.82 ± 0.47 nM

**Q.** For `C[C@@H]1CCO[C@H]2Cn3cc(C(=O)NCc4ccc(F)cc4F)c(=O)c(O)c3C(=O)N12` [DTG, dolutegravir], which EC50 (HIV-2 isolates; HIV-2 isolate CBL-20) is on record?
**A.** 0.36 nM

**Q.** And the EC50 (HIV-2 isolates; HIV-2 isolate CDC310319)?
**A.** 1.81 nM

**Q.** And the “EC50 Fold-Change” value (INSTI-resistant viruses; E92Q/N155H)?
**A.** 3.0 ± 1.1

**Q.** What about the “EC50 Fold-Change” value (INSTI-resistant viruses; E138K/Q148K) of the same compound?
**A.** 7.3 ± 4.1

**Q.** And the “EC50 Fold-Change” value (INSTI-resistant viruses; G140S/Q148R)?
**A.** 6.9 ± 3.1

**Q.** And the “EC50 Fold-Change” value (INSTI-resistant viruses; N155H/Q148R)?
**A.** 1.5 ± 0.6

**Q.** What about the “EC50 Fold-Change” value (INSTI-resistant viruses; R263K/M50I) of the same compound?
**A.** 2.8 ± 2.1

**Q.** What about the “EC50 Fold-Change” value (INSTI-resistant viruses; Y143R) of the same compound?
**A.** 0.8 ± 0.3

**Q.** And the EC50 (HIV-1 clinical isolates; Human immunodeficiency virus 1, BAL, PBMC, 168 h, read-out: EC50 in human PBMCs, HIV-1 subtype B isolate Ba-L, 7-day infection, RT activity readout, mean of triplicate)?
**A.** 0.4 nM

**Q.** And the EC50 (HIV-1 clinical isolates; Human immunodeficiency virus 1, PBMC, 168 h, read-out: EC50 in human PBMCs, HIV-1 CRF01_AE isolate 90TH_CM235, 7-day infection, RT activity readout, mean of triplicate)?
**A.** 1.02 nM

**Q.** And the EC50 (HIV-1 clinical isolates; Human immunodeficiency virus 1, PBMC, 168 h, read-out: EC50 in human PBMCs, HIV-1 CRF02_AG isolate 01CM0008BBY, 7-day infection, RT activity readout, mean of triplicate)?
**A.** 1.04 nM

**Q.** What about the EC50 (HIV-1 clinical isolates; Human immunodeficiency virus 1, PBMC, 168 h, read-out: EC50 in human PBMCs, HIV-1 CRF02_AG isolate 91DJ263, 7-day infection, RT activity readout, mean of triplicate) of the same compound?
**A.** 0.45 nM

**Q.** What about the EC50 (HIV-1 clinical isolates; Human immunodeficiency virus 1, PBMC, 168 h, read-out: EC50 in human PBMCs, HIV-1 Group N isolate YBF30, 7-day infection, RT activity readout, mean of triplicate) of the same compound?
**A.** 0.54 nM

**Q.** And the EC50 (HIV-1 clinical isolates; Human immunodeficiency virus 1, PBMC, 168 h, read-out: EC50 in human PBMCs, HIV-1 Group O isolate BCF01, 7-day infection, RT activity readout, mean of triplicate)?
**A.** 0.64 nM

**Q.** And the EC50 (HIV-1 clinical isolates; Human immunodeficiency virus 1, PBMC, 168 h, read-out: EC50 in human PBMCs, HIV-1 subtype A isolate 92UG031, 7-day infection, RT activity readout, mean of triplicate)?
**A.** 0.63 nM

**Q.** And the EC50 (HIV-1 clinical isolates; Human immunodeficiency virus 1, PBMC, 168 h, read-out: EC50 in human PBMCs, HIV-1 subtype A isolate 92UG037, 7-day infection, RT activity readout, mean of triplicate)?
**A.** 0.47 nM

**Q.** And the EC50 (HIV-1 clinical isolates; Human immunodeficiency virus 1, PBMC, 168 h, read-out: EC50 in human PBMCs, HIV-1 subtype B isolate 89BZ_167, 7-day infection, RT activity readout, mean of triplicate)?
**A.** 1.18 nM

**Q.** And the EC50 (HIV-1 clinical isolates; Human immunodeficiency virus 1, PBMC, 168 h, read-out: EC50 in human PBMCs, HIV-1 subtype B isolate 90US_873, 7-day infection, RT activity readout, mean of triplicate)?
**A.** 0.82 nM

**Q.** And the EC50 (HIV-1 clinical isolates; Human immunodeficiency virus 1, PBMC, 168 h, read-out: EC50 in human PBMCs, HIV-1 subtype B isolate 91US001, 7-day infection, RT activity readout, mean of triplicate)?
**A.** 0.53 nM

**Q.** What about the EC50 (HIV-1 clinical isolates; Human immunodeficiency virus 1, PBMC, 168 h, read-out: EC50 in human PBMCs, HIV-1 subtype B isolate 91US004, 7-day infection, RT activity readout, mean of triplicate) of the same compound?
**A.** 0.4 nM

**Q.** And the EC50 (HIV-1 clinical isolates; Human immunodeficiency virus 1, PBMC, 168 h, read-out: EC50 in human PBMCs, HIV-1 subtype B isolate 96TH_NP1538, 7-day infection, RT activity readout, mean of triplicate)?
**A.** 0.4 nM

**Q.** And the EC50 (HIV-1 clinical isolates; Human immunodeficiency virus 1, PBMC, 168 h, read-out: EC50 in human PBMCs, HIV-1 subtype B isolate JR-CSF, 7-day infection, RT activity readout, mean of triplicate)?
**A.** 0.41 nM

**Q.** And the EC50 (HIV-1 clinical isolates; Human immunodeficiency virus 1, PBMC, 168 h, read-out: EC50 in human PBMCs, HIV-1 subtype C isolate 92BR025, 7-day infection, RT activity readout, mean of triplicate)?
**A.** 0.91 nM

**Q.** And the EC50 (HIV-1 clinical isolates; Human immunodeficiency virus 1, PBMC, 168 h, read-out: EC50 in human PBMCs, HIV-1 subtype C isolate 98US_MSC5016, 7-day infection, RT activity readout, mean of triplicate)?
**A.** 0.77 nM

**Q.** And the EC50 (HIV-1 clinical isolates; Human immunodeficiency virus 1, PBMC, 168 h, read-out: EC50 in human PBMCs, HIV-1 subtype D isolate 92UG001, 7-day infection, RT activity readout, mean of triplicate)?
**A.** 1.09 nM

**Q.** And the EC50 (HIV-1 clinical isolates; Human immunodeficiency virus 1, PBMC, 168 h, read-out: EC50 in human PBMCs, HIV-1 subtype D isolate 98UG_57128, 7-day infection, RT activity readout, mean of triplicate)?
**A.** 0.7 nM

**Q.** And the EC50 (HIV-1 clinical isolates; Human immunodeficiency virus 1, PBMC, 168 h, read-out: EC50 in human PBMCs, HIV-1 subtype E isolate CMU02, 7-day infection, RT activity readout, mean of triplicate)?
**A.** 0.81 nM

**Q.** What about the EC50 (HIV-1 clinical isolates; Human immunodeficiency virus 1, PBMC, 168 h, read-out: EC50 in human PBMCs, HIV-1 subtype E isolate CMU08, 7-day infection, RT activity readout, mean of triplicate) of the same compound?
**A.** 0.96 nM

**Q.** And the EC50 (HIV-1 clinical isolates; Human immunodeficiency virus 1, PBMC, 168 h, read-out: EC50 in human PBMCs, HIV-1 subtype F isolate 93BR020, 7-day infection, RT activity readout, mean of triplicate)?
**A.** 0.38 nM

**Q.** And the EC50 (HIV-1 clinical isolates; Human immunodeficiency virus 1, PBMC, 168 h, read-out: EC50 in human PBMCs, HIV-1 subtype G isolate JV1083, 7-day infection, RT activity readout, mean of triplicate)?
**A.** 0.93 nM

**Q.** And the EC50 (HIV-1 clinical isolates; Human immunodeficiency virus 1, PBMC, read-out: HIV-1 EC50 Mean ± s.d., mean over the 22 HIV-1 clinical isolates, human PBMCs)?
**A.** 0.7 ± 0.26 nM

**Q.** What about the EC50 (HIV-1 clinical isolates; Human immunodeficiency virus 1, PBMC, read-out: HIV-1 EC50 Median, median over the 22 HIV-1 clinical isolates, human PBMCs) of the same compound?
**A.** 0.67 nM

**Q.** What about the EC50 (HIV-1 clinical isolates; Human immunodeficiency virus 1, PBMC, read-out: HIV-1 EC50 Range, range over the 22 HIV-1 clinical isolates, human PBMCs) of the same compound?
**A.** 0.38 to 1.18 nM

**Q.** And the EC50 (WT HXB2D; [1])?
**A.** 2.24 ± 0.46 nM
